Experimental data from US4656180A, “Diamine derivatives and pharmaceutical preparations containing these compounds” (Ludwig Heumann & Co., GmbH, priority 1984, dated 1987).

What was measured:
[1] = therapeutic use; several daily doses of tablets required; cited from earlier work
histamine-H2 receptors = target: T1, histamine-H2 receptors (Cavia porcellus, UniProt P47747); experiment: pA2-values in vitro on isolated guinea-pigs' atrium (H2-antagonistic activity); parameters: species or system guinea-pig
T1 construct: in vitro on isolated guinea-pigs' atrium; from tissue; host or cells: isolated guinea-pig atrium (right atrium per b6)
Source text: J. Pharmacol. Chemother. ", 27, 427 (1966) and Black et al, "Nature", 236, 385 (1971)].
One recognized method of determining the H2 -antagonistic activity is the determination of the pA2 -values in vitro on isolated guinea-pigs' atrium (see Ariens, Molecular Pharmacology, Volume 1, Academic Press, New York, 1964).

T1 sequence (P47747 whole entry): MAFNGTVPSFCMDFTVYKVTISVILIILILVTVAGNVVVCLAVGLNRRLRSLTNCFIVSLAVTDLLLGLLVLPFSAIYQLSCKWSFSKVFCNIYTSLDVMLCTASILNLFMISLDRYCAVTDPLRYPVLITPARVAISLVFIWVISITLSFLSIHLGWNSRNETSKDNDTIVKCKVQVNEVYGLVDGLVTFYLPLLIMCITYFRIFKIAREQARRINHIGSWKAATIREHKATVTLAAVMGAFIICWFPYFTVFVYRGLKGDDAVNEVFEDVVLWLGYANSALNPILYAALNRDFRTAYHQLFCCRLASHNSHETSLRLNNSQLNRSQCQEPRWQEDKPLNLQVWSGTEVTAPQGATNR

SMILES | half life [1] | Kb (histamine-H2 receptors) [nM]
CNC(=C[N+](=O)[O-])NCCSCc1ccc(CN(C)C)o1 [ranitidine] | relatively short half life | –
[O-][s+]1nc(NCC(O)COc2cccc(CN3CCCCC3)c2)c(NCC(O)COc2cccc(CN3CCCCC3)c2)n1 (stereo not drawn) [Example 4] | – | 7.24
CN/C(=N/CCSCc1nc[nH]c1C)NC#N [Cimetidine] | relatively short half life | –
